A short description of one data set: Cytotoxicity, XTT, MRC-5. Conditions: human.
The nature of another data set: in vitro. As to conditions: dog, CC50 (μM), MDCK; with Influenza B CPE assays.
A short description of data set [1]: Cytotoxicity, neutral red, Vero E6. As to conditions: African green monkey, Vero E6 cells (uninfected toxicity wells), with CPE assay, not converted for FBS. Type of data set: cell-based. The method, then:
Confluent or near-confluent cell culture monolayers of Vero E6 cells are prepared in 96-well disposable microplates the day before testing. Cells are maintained in MEM supplemented with 5% FBS. For antiviral assays the same medium is used but with FBS reduced to 2% and supplemented with 50-μg/ml gentamicin. Compounds are dissolved in DMSO, saline or the diluent requested by the submitter. […] The test compound is prepared at four serial log 10 concentrations, usually 0.1, 1.0, 10, and 100 μg/ml or μM (per sponsor preference). Lower concentrations are used when insufficient compound is supplied. Five microwells are used per dilution: three for infected cultures and two for uninfected toxicity cultures. Controls for the experiment consist of six microwells that are infected and not treated (virus controls) and six that are untreated and uninfected (cell controls) on every plate. A known active drug is tested in parallel as a positive control drug using the same method as is applied for test compounds. The positive control is tested with every test run.
Growth media is removed from the cells and the test compound is applied in 0.1 ml volume to wells at 2× concentration. Virus, normally at ˜60 CCID50 (50% cell culture infectious dose) in 0.1 ml volume is added to the wells designated for virus infection. […] The dye content in each well is quantified using a spectrophotometer at 540 nm wavelength. […]

The subject of another data set is CoV229E. As to the kind of experiment: Anti-Coronavirus 229E cytoprotection (CPE) assay, MRC-5 (Method 3). Type of data set: cell-based, human Coronavirus 229E. As to conditions: Human coronavirus 229E, MRC5, […], read-out: CoV229E - EC50 (μM).
A further data set concerns FBS. As to the kind of experiment: Protein binding by rapid equilibrium dialysis (RED) in FBS. As to conditions: 1 μM, n = 3.
For data set [2], the system named is SARS-CoV-2 USA-WA1/2020. As to the kind of experiment: SARS-CoV-2 immunofluorescence (IF) assay, HeLa-ACE2 (Method 1). Type of data set: cell-based. Conditions: Severe acute respiratory syndrome coronavirus 2, HeLa-ACE2, SARS-CoV-2 USA-WA1/2020, 2% FBS.
The subject of a further data set is Huh-luc/neo-ET cells. The data set can be described thus: XTT cell viability assay, Huh-luc/neo-ET. Format: cell-based. As to conditions: XTT, 72 hours, read-out: HCV 1b - TC50. Here is the method:
(§1) Twenty-four hours after seeding the cells, the cell culture supernatant was removed from each well and replaced with 175 μL fresh complete medium minus G418. Test compounds were evaluated at a high-test concentration of 10 μM and five serial half-logarithmic dilutions in three biological replicates. In three biological replicates, Sofosbuvir was evaluated in parallel at a high-test concentration of 1 μM and five serial half-logarithmic dilutions. Compounds were first serially diluted in DMSO to 400× of each final in-well concentration. An intermediate 8× solution was prepared in a complete medium and then added to the cells in a volume of 25 μL per well. A complete medium containing an equal percentage of DMSO (v/v) was added to vehicle-treated control cells. The final DMSO concentration was 0.25% (v/v) for all samples. The cells were incubated for an additional 72 hours at 37° C./5% CO2, then HCV replication was measured by luciferase activity and cell viability was assessed in parallel using an XTT colorimetric assay.
(§2) Huh-luc/neo-ET cell viability was measured at 72 hours after treatment using the tetrazolium dye XTT (2,3-bis(2-methoxy-4-nitro-5-sulfophenyI)-5[(phenylamino)carbonyl]-2H-tetrazolium hydroxide). Mitochondrial enzymes of metabolically active cells metabolize XTT-tetrazolium to a soluble formazan product. XTT solution was prepared fresh at 1 mg/mL in DMEM. Phenazine methosulfate (PMS) solution was prepared at 0.15 mg/mL in PBS and stored in the dark at −20° C. An XTT/PMS stock was prepared immediately before use by adding 40 μL of PMS per ml of XTT solution. Fifty microliters (50 μL) XTT/PMS were added per well, and the cells were incubated for 4 hours at 37° C. The cell culture plates were then sealed with adhesive plate sealers and shaken gently or inverted several times to mix the soluble formazan product. The formazan product was measured spectrophotometrically by absorbance at 450/650 nm on a Vmax plate reader (Molecular Devices). The raw data in Softmax Pro 5.4.2 software was imported into Microsoft Excel for further analysis. Data are presented as absorbance values (450/650 nm) or the percentage of viable cells relative to vehicle-treated control (mean+1—standard deviation, n=3 biological replicates from one independent experiment).
On the technique in general: Tetrazolium assays rely on reduction of a dye to a coloured formazan, in cell work by metabolically active cells.

A short description of data set [3]: XTT cell viability assay, Huh-luc/neo-ET. Conditions: human, Huh-luc/neo-ET cells, with HCV replicon assay, not converted, read-out: CC50. Format: cell-based. Here is the method:
as §1, §2

A further data set has as its system MRC-5 cells. Conditions: human, 6 days.
The next data set concerns Norwalk Virus. As to the kind of experiment: Norwalk virus CPE assay, HG23 (Method 6). Format: cell-based. As to conditions: Norovirus Norwalk Virus, 2% FBS, @ 5 μM. The method, then:
Compounds were tested in an assay medium containing 2% fetal bovine serum (FBS). Test compounds were added to cells prior to infection with virus at a multiplicity of infection (MOI) sufficient to induce visible cytopathic effect (CPE). […] Additionally, the EC90 was defined as the concentration required to achieve a 1 log10 reduction in viral titer. Dose-response curves depicting viral CPE (red line) and compound cytotoxicity (purple line) were generated to support these analyses.

Data set [4] concerns SARS-CoV-2 USA-WA1/2020. The data set can be described thus: SARS-CoV-2 CPE assay, Vero 76 (Method 2). As to conditions: Severe acute respiratory syndrome coronavirus 2, 2% FBS. Format: cell-based.
Data set [5] concerns SARS-CoV-2 USA-WA1/2020. As to the kind of experiment: SARS-CoV-2 viral yield reduction (VYR) assay, Caco-2 (Method 2). Type of data set: cell-based. As to conditions: Severe acute respiratory syndrome coronavirus 2, 2% FBS.
Text: The antiviral assays were cell line based and consisted in transfecting each of the viruses tested in a compatible cell line. Upon infection and after drug treatment, viral survival and cell toxicity were reported from the readout of three different assays: cytopathic effect (CPE), viral yield reduction (VYR), or immunofluorescence (IF).
After sufficient virus replication occurs (3 days for SARS-CoV-2), a sample of supernatant is taken from each infected well (three replicate wells are pooled) and tested immediately or held frozen at −80° C. for later virus titer determination. After maximum CPE is observed, the viable plates are stained with neutral red dye. The incorporated dye content is quantified as described above to generate the EC50 and CC50 values.
Serial 1/10 dilutions of virus are made and plated into 4 replicate wells containing fresh cell monolayers of Vero E6 cells. Plates are then incubated, and cells are scored for presence or absence of virus after distinct CPE is observed, and the CCID50 calculated using the Reed-Muench method (24). […] Dividing EC90 by the CC50 gives the SI value for this test.

This note sets out measurements from patent publication US20260124192A1, “COMPOUNDS, COMPOSITIONS, AND METHODS OF TREATING RNA VIRAL INFECTIONS” (priority 2024, published 2026).

In general, EC50 refers to the concentration needed to bring the measured effect to its halfway point. Turning to `Cc1c(-c2ccc(O)cc2)n(Cc2ccc(OCCN3CCCCC3)cc2)c2ccc(O)cc12` [Pipendoxifene], the CC50 at 6 days in the data set “Cytotoxicity, XTT, MRC-5” was over 1000 nM. Further, the CC50 in “in vitro” is 9.8 µM; in data set [1], 3200 nM; in the data set with Huh-luc/neo-ET cells, over 10000 nM; in the data set on MRC-5 cells, over 1000 nM. Also, the EC50 is 0.11 to 0.52 µM in the data set with CoV229E, 675 nM in the data set with SARS-CoV-2 USA-WA1/2020 [2], 2600 nM with SARS-CoV-2 USA-WA1/2020 [4] and 540 nM in the data set on SARS-CoV-2 USA-WA1/2020 [5]. In addition, the “Mean unbound (Fub, %)” value in the data set on FBS (2% heat inactivated FBS) stood at 25.0%; with FBS (10% heat inactivated FBS) it was 5.0%; in the data set with FBS (10% not inactivated FBS), 4.7%. Further, the CC50 at 72 h in [3] is over 10000 nM. Besides, in the data set with Norwalk Virus, the “percent effect printed in column EC50 (μM)” value stood at 31% @.
